The values that follow come from patent publication US12122785B2, “Substituted pyridines, pyridazines, pyrimidines, and 1,2,4-triazines as TYK2 inhibitors” (Sudo Biosciences Limited, priority 2021, dated 2024).

The subject of assay [1] is IFNγ-stimulated HEK-Blue IFNγ reporter cells. The assay can be described thus: HEK-Blue IFNγ reporter assay (STAT1-inducible SEAP) for determining selectivity. The format is cell-based. As to conditions: 50 ng/mL human recombinant IFNγ, 24 hours, read-out: IFN-γ SEAP selectivity assay IC50. In a few lines:
(§1)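 Cells were plated for 20-22 h, then pretreated with serially diluted compound for 60 min. They were stimulated for 24 h with 4 ng/mL human recombinant IL-2 or 50 ng/mL human recombinant IFNγ, and SEAP induction was read with QUANTI-Blue.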

In assay [2] the test system is IL-2-stimulated HEK-Blue IL-2 reporter cells. Put plainly: HEK-Blue IL-2 reporter assay (STAT5-inducible SEAP) for determining selectivity. The format is cell-based. To be noted: 4 ng/mL human recombinant IL-2, 24 hours. In a few lines: as §1
A general note: In a reporter assay the amount or activity of a reporter protein is the signal.

The subject of assay [3] is TYK2 pseudokinase (JH2); IL-23-stimulated HEK-Blue IL-23 cells. Put plainly: HEK-Blue IL-23 reporter assay (STAT3-inducible SEAP) for profiling TYK2 pseudokinase (JH2) inhibition. The assay is classed as cell-based. To be noted: 10 ng/mL human recombinant IL-23, SEAP readout, read-out: IL23 (TYK2 inhibitory activity, IC50). In a few lines: (§2)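 STAT-inducible SEAP read-out: IFNα/β cells got 1 ng/mL IFNα for 16-18 h and IL-23 cells got 10 ng/mL IL-23 for 22-24 hours. In both cases the cytokine followed a 60 min preincubation with titrated test compound.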

The next assay deals with T1, JAK3 kinase domain (JH1) (Homo sapiens, UniProt P52333).
T1 construct: recombinant purified His or GST-tagged catalytic domain for each enzyme; purchased Carna biosciences 08-046
T1 sequence (P52333 822-1111 limits assumed): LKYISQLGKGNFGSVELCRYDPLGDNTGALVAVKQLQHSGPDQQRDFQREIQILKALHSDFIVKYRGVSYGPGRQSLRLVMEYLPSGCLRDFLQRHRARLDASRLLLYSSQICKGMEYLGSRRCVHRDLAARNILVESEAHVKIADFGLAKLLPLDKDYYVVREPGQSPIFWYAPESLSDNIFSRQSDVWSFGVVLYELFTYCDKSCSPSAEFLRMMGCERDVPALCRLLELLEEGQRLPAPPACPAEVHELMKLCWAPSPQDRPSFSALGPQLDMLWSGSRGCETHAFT
Put plainly: HTRF-based selectivity assay, JAK3 catalytic domain. The assay is classed as biochemical. As to conditions: 2.12 μM ATP. In a few lines: (§3)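 Recombinant His- or GST-tagged JAK catalytic domains (JAK1 80.6, JAK2 2.1, JAK3 171.8 ng/mL) preincubated with compound 5-20 min at RT, then ATP (JAK1 21.43, JAK2 14.7, JAK3 2.12 μM) plus peptide substrate (454.7, 200, 257.4 nM respectively) added. HEPES buffer with MgCl2, 60 min at 26.5 °C; HTRF read-out.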
Background: Time-resolved FRET reads energy transfer from a long-lived donor to a nearby acceptor.

In a further assay the target is T2, TYK2 kinase domain (JH1) (Homo sapiens, UniProt P29597).
T2 construct: recombinant purified His or GST-tagged catalytic domain for each enzyme; made in house
T2 sequence (P29597 897-1176 limits assumed): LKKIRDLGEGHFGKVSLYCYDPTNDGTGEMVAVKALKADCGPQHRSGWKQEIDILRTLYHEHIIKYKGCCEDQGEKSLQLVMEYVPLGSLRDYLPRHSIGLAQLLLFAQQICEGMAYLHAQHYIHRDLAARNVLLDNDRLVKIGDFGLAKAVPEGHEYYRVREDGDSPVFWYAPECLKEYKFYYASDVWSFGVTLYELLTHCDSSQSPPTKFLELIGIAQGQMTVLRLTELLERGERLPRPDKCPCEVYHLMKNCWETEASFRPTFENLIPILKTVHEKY
The assay can be described thus: HTRF-based selectivity assay, TYK2 catalytic domain. The format is biochemical. As to conditions: 20 μM ATP.

The target of another assay is T3, JAK1 kinase domain (JH1) (Homo sapiens, UniProt P23458).
T3 construct: recombinant purified His or GST-tagged catalytic domain for each enzyme; made in house
T3 sequence (P23458 875-1153 limits assumed): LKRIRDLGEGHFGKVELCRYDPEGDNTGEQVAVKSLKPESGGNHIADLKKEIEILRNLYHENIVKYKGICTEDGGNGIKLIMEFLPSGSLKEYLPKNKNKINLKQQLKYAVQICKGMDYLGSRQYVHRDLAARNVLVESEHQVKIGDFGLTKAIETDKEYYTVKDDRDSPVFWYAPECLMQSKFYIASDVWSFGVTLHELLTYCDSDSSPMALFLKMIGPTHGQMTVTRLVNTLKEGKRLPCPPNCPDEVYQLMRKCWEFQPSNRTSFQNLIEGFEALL
The assay can be described thus: HTRF-based selectivity assay, JAK1 catalytic domain. The format is biochemical. To be noted: 21.43 μM ATP, read-out: JAK-JHI (IC50). In a few lines: as §3

The target of a further assay is T4, JAK2 kinase domain (JH1) (Homo sapiens, UniProt O60674).
T4 construct: recombinant purified His or GST-tagged catalytic domain for each enzyme; made in house
T4 sequence (O60674 849-1124 limits assumed): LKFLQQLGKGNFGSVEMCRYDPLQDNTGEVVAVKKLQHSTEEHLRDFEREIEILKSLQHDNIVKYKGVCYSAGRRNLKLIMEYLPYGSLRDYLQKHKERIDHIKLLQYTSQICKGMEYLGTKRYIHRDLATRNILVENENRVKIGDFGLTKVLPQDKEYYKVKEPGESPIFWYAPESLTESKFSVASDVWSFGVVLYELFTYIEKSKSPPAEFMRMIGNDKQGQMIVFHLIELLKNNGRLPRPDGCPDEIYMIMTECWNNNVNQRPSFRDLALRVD
Put plainly: HTRF-based selectivity assay, JAK2 catalytic domain. As to conditions: 14.7 μM ATP. The format is biochemical. In a few lines: as §3

Assay [4] deals with TYK2 pseudokinase (JH2); IFNα-stimulated HEK-Blue IFNα/β cells. The assay can be described thus: HEK-Blue IFNα/β reporter assay (STAT1-inducible SEAP) for profiling TYK2 pseudokinase (JH2) inhibition. The assay is classed as cell-based. To be noted: 1 ng/mL human recombinant IFNα, SEAP readout, read-out: IFNα (TYK2 inhibitory activity, IC50). In a few lines: as §2

Each structure is given as a SMILES string.

As to `CNC(=O)c1nnc(Nc2ccc(F)cn2)cc1Nc1cccc2c1OCc1cnn(C)c1-2` [Compound 49, 6-((5-fluoropyridin-2-yl)amino)-N-methyl-4-((1-methyl-1,4-dihydrochromeno[4,3-c]pyrazol-6-yl)amino)pyridazine-3-carboxamide], the IC50 in assay [1] is below 0.03 µM; in assay [2], 0.3 to 1 µM; in assay [3], 0.03 to 0.3 µM; against JAK3 kinase domain (JH1), above 1 µM; against TYK2 kinase domain (JH1), above 1 µM; on JAK1 kinase domain (JH1), above 1 µM. In addition, the IC50 (at JAK2 kinase domain (JH1); in assay [4]) was above 1 µM each time.
As to `[2H]C([2H])([2H])NC(=O)c1cnc(NC(=O)C2(O)CC2)cc1Nc1cccc2c1N(C)Cc1cn(C)nc1-2` [Compound 21, 4-((2,5-dimethyl-4,5-dihydro-2H-pyrazolo[4,3-c]quinolin-6-yl)amino)-6-(1-hydroxycyclopropane-1-carboxamido)-N-(methyl-d3)nicotinamide], the half-maximal inhibitory concentration (IC50) in assay [1] was above 1 µM; in assay [2], above 1 µM; in assay [3], 0.03 to 0.3 µM; against JAK3 kinase domain (JH1), above 1 µM; against TYK2 kinase domain (JH1), above 1 µM; on JAK1 kinase domain (JH1), above 1 µM. For the same compound, the values for the IC50 (against JAK2 kinase domain (JH1); in assay [4]) were above 1 µM and 0.03 to 0.3 µM, respectively.
Consider `CNC(=O)c1nnc(Nc2ccc(F)cn2)cc1Nc1cccc2c1N(C)Cc1cn(C)nc1-2` [Compound 12, (4-((2,5-dimethyl-4,5-dihydro-2H-pyrazolo[4,3-c]quinolin-6-yl)amino)-6-((5-fluoropyridin-2-yl)amino)-N-methylpyridazine-3-carboxamide)], for which the IC50 was 0.03 to 0.3 µM in assay [1]; above 1 µM in assay [2]; below 0.03 µM in assay [3]; above 1 µM against JAK3 kinase domain (JH1); above 1 µM against TYK2 kinase domain (JH1); above 1 µM at JAK1 kinase domain (JH1). Further, the IC50 was above 1 µM against JAK2 kinase domain (JH1) and below 0.03 µM in assay [4].
`[2H]C([2H])([2H])NC(=O)c1cnc(NC(=O)C2CC2)cc1Nc1cccc2c1N(C)Cc1cn(C([2H])([2H])[2H])nc1-2` [Compound 19, 6-(cyclopropanecarboxamido)-N-(methyl-d3)-4-((5-methyl-2-(methyl-d3)-4,5-dihydro-2H-pyrazolo[4,3-c]quinolin-6-yl)amino)nicotinamide]: the IC50 in assay [1] was above 1 µM; in assay [2] it was above 1 µM; in assay [3] it was below 0.03 µM; against JAK3 kinase domain (JH1) it was above 1 µM; at TYK2 kinase domain (JH1), above 1 µM; on JAK1 kinase domain (JH1) it was above 1 µM. Moreover, the IC50 is above 1 µM on JAK2 kinase domain (JH1) and below 0.03 µM in assay [4].
In the case of `[2H]C([2H])([2H])NC(=O)c1nnc(Nc2ccc(F)cn2)cc1Nc1cccc2c1OCc1cn(C)nc1-2` [Compound 5, 6-((5-fluoropyridin-2-yl)amino)-N-(methyl-d3)-4-((2-methyl-2,4-dihydrochromeno[4,3-c]pyrazol-6-yl)amino)pyridazine-3-carboxamide], the IC50 in assay [1] was above 1 µM; in assay [2], above 1 µM; in assay [3] it was below 0.03 µM; against JAK3 kinase domain (JH1), above 1 µM; at TYK2 kinase domain (JH1) it was above 1 µM; at JAK1 kinase domain (JH1), above 1 µM. Moreover, the IC50 is above 1 µM against JAK2 kinase domain (JH1) and 0.03 to 0.3 µM in assay [4].
`[2H]C([2H])([2H])NC(=O)c1cnc(Nc2cc(C)nc(C)n2)cc1Nc1cccc2c1N(C)Cc1cn(C)nc1-2` [Compound 16, 4-((2,5-dimethyl-4,5-dihydro-2H-pyrazolo[4,3-c]quinolin-6-yl)amino)-6-((2,6-dimethylpyrimidin-4-yl)amino)-N-(methyl-d3)nicotinamide]: the IC50 in assay [1] is 0.03 to 0.3 µM; in assay [2], 0.3 to 1 µM; in assay [3] it was below 0.03 µM; on JAK3 kinase domain (JH1), above 1 µM; against TYK2 kinase domain (JH1), above 1 µM; at JAK1 kinase domain (JH1) it was above 1 µM. In addition, the half-maximal inhibitory concentration (IC50) against JAK2 kinase domain (JH1) is above 1 µM; in assay [4], below 0.03 µM.
With `[2H]C([2H])([2H])NC(=O)c1cnc(NC(=O)C2CC2)cc1Nc1cccc2c1N(C([2H])([2H])[2H])Cc1cn(C)nc1-2` [Compound 26, 6-(cyclopropanecarboxamido)-N-(methyl-d3)-4-((2-methyl-5-(methyl-d3)-4,5-dihydro-2H-pyrazolo[4,3-c]quinolin-6-yl)amino)nicotinamide], the half-maximal inhibitory concentration (IC50) in assay [1] was 0.03 to 0.3 µM; in assay [2], above 1 µM; in assay [3], below 0.03 µM; at JAK3 kinase domain (JH1) it was above 1 µM; against TYK2 kinase domain (JH1) it was above 1 µM; at JAK1 kinase domain (JH1), above 1 µM. Also, the IC50 against JAK2 kinase domain (JH1) is above 1 µM; in assay [4], below 0.03 µM.
Consider `CN1Cc2cn(C)nc2-c2cccc(Nc3cc(NC(=O)C4CC4)ncc3C(N)=O)c21` [Compound 17, 6-(cyclopropanecarboxamido)-4-((2,5-dimethyl-4,5-dihydro-2H-pyrazolo[4,3-c]quinolin-6-yl)amino)nicotinamide], for which the IC50 in assay [1] is below 0.03 µM; in assay [2] it was below 0.03 µM; in assay [3] it was below 0.03 µM; on JAK3 kinase domain (JH1), below 0.03 µM; against TYK2 kinase domain (JH1) it was 0.03 to 0.3 µM; at JAK1 kinase domain (JH1) it was below 0.03 µM. Further, the half-maximal inhibitory concentration (IC50) (against JAK2 kinase domain (JH1); in assay [4]) was below 0.03 µM throughout.

Usually IC50 stands for the concentration needed to halve the response being measured.
